In article PMC8343220, “The selectivity of α‐adrenoceptor agonists for the human α1A, α1B, and α1D‐adrenoceptors” (Pharmacology Research & Perspectives, 2021):
Like-named read-outs stand apart in the source and are kept apart here.

What was measured:
[1] = molecular target: T1, human α1D‐adrenoceptor (full length) (Homo sapiens, UniProt P25100); assay: Intracellular free calcium mobilization, CHO‐α1D cells; assay type: cell-based
T1 construct: human α1D‐adrenoceptor (full length) were used; expressed in transfected cells; host or cells: CHO-K1
T1 sequence (P25100 1-572): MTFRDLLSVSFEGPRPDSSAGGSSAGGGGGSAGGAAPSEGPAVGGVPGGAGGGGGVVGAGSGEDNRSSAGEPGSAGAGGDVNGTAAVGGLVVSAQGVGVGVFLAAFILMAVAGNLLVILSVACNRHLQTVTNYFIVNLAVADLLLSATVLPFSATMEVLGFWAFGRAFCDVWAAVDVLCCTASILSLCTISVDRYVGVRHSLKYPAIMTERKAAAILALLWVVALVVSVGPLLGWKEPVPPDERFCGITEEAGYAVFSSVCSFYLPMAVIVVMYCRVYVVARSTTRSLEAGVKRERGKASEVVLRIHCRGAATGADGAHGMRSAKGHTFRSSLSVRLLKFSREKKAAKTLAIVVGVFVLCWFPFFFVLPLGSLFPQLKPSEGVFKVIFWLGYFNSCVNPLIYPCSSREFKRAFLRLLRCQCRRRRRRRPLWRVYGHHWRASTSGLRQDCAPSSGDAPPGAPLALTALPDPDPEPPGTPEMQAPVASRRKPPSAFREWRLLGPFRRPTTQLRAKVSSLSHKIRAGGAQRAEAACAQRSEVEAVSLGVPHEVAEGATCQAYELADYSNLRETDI

[2] = molecular target: T1, human α1D‐adrenoceptor (full length); assay: ^3H‐cAMP accumulation, CHO‐α1D cells; assay type: cell-based; conditions: cAMP accumulation without forskolin
[3] = molecular target: T1, human α1D‐adrenoceptor (full length); assay: ERK1/2‐phosphorylation (Surefire Alphascreen), CHO‐α1D cells; assay type: cell-based
[4] = tested on: parental CHO cell line without any transfected receptors; assay: Forskolin‐stimulated cAMP accumulation, parent CHO cells without transfected receptors; assay type: cell-based, Chinese hamster
human α1B‐adrenoceptor [5] = molecular target: T2, human α1B‐adrenoceptor (Homo sapiens, UniProt P35368); assay: Intracellular free calcium mobilization, CHO‐α1B cells; assay type: cell-based
T2 construct: expressed in transfected cells; host or cells: CHO-K1
T2 sequence (P35368 1-520): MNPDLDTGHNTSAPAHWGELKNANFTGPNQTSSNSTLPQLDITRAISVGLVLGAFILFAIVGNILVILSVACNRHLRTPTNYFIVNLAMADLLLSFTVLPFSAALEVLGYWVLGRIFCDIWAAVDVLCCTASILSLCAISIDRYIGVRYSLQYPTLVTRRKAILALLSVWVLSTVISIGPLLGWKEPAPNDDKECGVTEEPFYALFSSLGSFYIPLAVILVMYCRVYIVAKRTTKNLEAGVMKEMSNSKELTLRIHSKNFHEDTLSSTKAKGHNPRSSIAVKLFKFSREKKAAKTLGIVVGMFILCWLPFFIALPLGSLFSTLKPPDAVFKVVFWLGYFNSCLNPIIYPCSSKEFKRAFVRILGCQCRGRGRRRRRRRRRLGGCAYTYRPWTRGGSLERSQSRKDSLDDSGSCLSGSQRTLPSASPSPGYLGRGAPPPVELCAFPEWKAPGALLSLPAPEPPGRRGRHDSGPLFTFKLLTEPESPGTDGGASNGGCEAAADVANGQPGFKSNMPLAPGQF

human α1A‐adrenoceptor [6] = molecular target: T3, human α1A‐adrenoceptor (Homo sapiens, UniProt P35348); assay: Intracellular free calcium mobilization, CHO‐α1A cells; assay type: cell-based
T3 construct: expressed in transfected cells; host or cells: CHO-K1
T3 sequence (P35348 1-466): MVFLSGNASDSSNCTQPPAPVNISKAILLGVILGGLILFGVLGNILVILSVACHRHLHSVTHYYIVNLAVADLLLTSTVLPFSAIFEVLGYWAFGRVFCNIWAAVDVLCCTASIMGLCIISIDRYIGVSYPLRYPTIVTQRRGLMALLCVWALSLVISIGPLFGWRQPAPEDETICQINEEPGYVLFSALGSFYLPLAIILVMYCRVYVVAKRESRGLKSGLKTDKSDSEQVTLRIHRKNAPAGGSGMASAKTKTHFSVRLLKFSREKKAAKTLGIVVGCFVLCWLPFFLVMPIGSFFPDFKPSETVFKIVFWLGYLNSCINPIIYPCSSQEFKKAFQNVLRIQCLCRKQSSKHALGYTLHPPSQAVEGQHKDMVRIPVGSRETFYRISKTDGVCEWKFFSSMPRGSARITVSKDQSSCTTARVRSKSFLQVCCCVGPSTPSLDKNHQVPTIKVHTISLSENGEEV

human α1B‐adrenoceptor [7] = molecular target: T2, human α1B‐adrenoceptor; assay: ^3H‐cAMP accumulation in the presence of 10 μM forskolin, CHO‐α1B cells; assay type: cell-based
human α1B‐adrenoceptor [8] = molecular target: T2, human α1B‐adrenoceptor; assay: ^3H‐cAMP accumulation, CHO‐α1B cells; assay type: cell-based
[9] = molecular target: T1, human α1D‐adrenoceptor (full length); assay: ^3H‐cAMP accumulation in the presence of 10 μM forskolin, CHO‐α1D cells; assay type: cell-based; conditions: CHO‐α1D cells
[10] = molecular target: T1, human α1D‐adrenoceptor (full length); assay: ^3H‐prazosin whole‐cell radioligand binding, CHO‐α1D cells
[11] = tested on: parental CHO cell line without any transfected receptors; assay: ^3H‐cAMP accumulation, parent CHO cells without transfected receptors; assay type: cell-based, Chinese hamster
human α1A‐adrenoceptor [12] = molecular target: T3, human α1A‐adrenoceptor; assay: ERK1/2‐phosphorylation (Surefire Alphascreen), CHO‐α1A cells; assay type: cell-based
human α1B‐adrenoceptor [13] = molecular target: T2, human α1B‐adrenoceptor; assay: ^3H‐prazosin whole‐cell radioligand binding, CHO‐α1B cells
human α1A‐adrenoceptor [14] = molecular target: T3, human α1A‐adrenoceptor; assay: ^3H‐cAMP accumulation in the presence of 10 μM forskolin, CHO‐α1A cells; assay type: cell-based
human α1A‐adrenoceptor [15] = molecular target: T3, human α1A‐adrenoceptor; assay: ^3H‐cAMP accumulation, CHO‐α1A cells; assay type: cell-based; conditions: for cAMP accumulation % forskolin: CHO‐α1A cells, % of 10 µM forskolin response
human α1A‐adrenoceptor [16] = molecular target: T3, human α1A‐adrenoceptor; assay: ^3H‐prazosin whole‐cell radioligand binding, CHO‐α1A cells
[17] = tested on: parental CHO cell line without any transfected receptors; assay: Intracellular calcium mobilization, parent CHO cells without transfected receptors; assay type: cell-based, Chinese hamster; conditions: Cricetulus griseus, read-out: Intracellular calcium release % ionomycin
human α1B‐adrenoceptor [18] = molecular target: T2, human α1B‐adrenoceptor; assay: ERK1/2‐phosphorylation (Surefire Alphascreen), CHO‐α1B cells; assay type: cell-based
[19] = tested on: parental CHO cell line without any transfected receptors; assay: ERK1/2‐phosphorylation, parent CHO cells without transfected receptors; assay type: cell-based, Chinese hamster
[20] = molecular target: T1, human α1D‐adrenoceptor (full length); conditions: CHO‐α1D cells; ligands marked ^a; ref Proudman et al., 2020; cited from earlier work
human α1B‐adrenoceptor [21] = molecular target: T2, human α1B‐adrenoceptor; conditions: CHO‐α1B cells; printed as IC50> log value; ligand marked ^a; ref Proudman et al., 2020; cited from earlier work
[22] = CHO‐α1D cells, response at 100 µM ligand (no EC50 given)
[23] = CHO‐α1A cells, maximal response as % of 10 µM ionomycin
[24] = CHO‐α1A cells, % of 10 µM PDBu, ^a bi‐phasic: initial stimulatory part
[25] = CHO‐α1B cells, maximal response as % PDBu response, for bi‐phasic responses the initial stimulatory part

C=CCc1ccccc1OC(C)C1=NCCN1 (stereo not shown) [Allyphenyline]
EC50 [1]: 316 nM | Intracellular calcium release % ionomycin [1]: 12.3 ± 1.4% | Log efficacy ratio KD /EC50 [1]: 0.65 | cAMP Log EC50 [2]: No response | EC50 [3]: 6920 nM | ERK1/2‐phosphorylation % PDBu [3]: 29.1 ± 4.7% | cAMP accumulation (in presence of forskolin) % forskolin-stim cAMP [4]: No response | cAMP accumulation (in presence of forskolin) Log EC50 [4]: No response | EC50 (human α1B‐adrenoceptor [5]): 79.4 nM | Intracellular calcium release % ionomycin (human α1B‐adrenoceptor [5]): 39.9 ± 1.9% | Log efficacy ratio KD /EC50 (human α1B‐adrenoceptor [5]): 1.99 | EC50 (human α1A‐adrenoceptor [6]): 2.95 nM | Intracellular calcium release % ionomycin (human α1A‐adrenoceptor [6]): 58.6 ± 3.0% | Log efficacy ratio KD /EC50 (human α1A‐adrenoceptor [6]): 1.74 | EC50 (human α1B‐adrenoceptor [7]): 51.3 nM | cAMP accumulation (in presence of forskolin) Fold increase (human α1B‐adrenoceptor [7]; CHO‐α1B cells, fold increase of the forskolin response): 1.87 ± 0.07 fold | EC50 (human α1B‐adrenoceptor [8]): 174 nM | cAMP accumulation % forskolin (human α1B‐adrenoceptor [8]; CHO‐α1B cells, % forskolin maximum response): 5.5 ± 0.9% | cAMP (in presence of forskolin) Fold increase ([9]; fold increase of the forskolin response): No response | cAMP (in presence of forskolin) Log EC50 ([9]; in presence of forskolin, log values given negative): No response | Affinity selectivity ratio α1B vs α1D [10]: 5.5 fold | Kd [10]: 1410 nM | cAMP accumulation % forskolin [11]: No response | EC50 (human α1A‐adrenoceptor [12]): 1.58 nM | ERK1/2‐phosphorylation % PDBu (human α1A‐adrenoceptor [12]): 79.3 ± 3.5% | Kd (human α1B‐adrenoceptor [13]): 7760 nM | EC50 (human α1A‐adrenoceptor [14]): 7.94 nM | cAMP accumulation (in presence of forskolin) Fold increase (human α1A‐adrenoceptor [14]; CHO‐α1A cells, fold increase of the forskolin response): 2.38 ± 0.08 fold | EC50 (human α1A‐adrenoceptor [15]): 89.1 nM | cAMP accumulation % forskolin (human α1A‐adrenoceptor [15]): 82.4 ± 5.5% | Affinity selectivity ratio α1A vs α1B (human α1A‐adrenoceptor [16]): 47.9 fold | Affinity selectivity ratio α1A vs α1D (human α1A‐adrenoceptor [16]): 8.7 fold | Kd (human α1A‐adrenoceptor [16]): 162 nM | Emax ([17]; CHO): 5.9 ± 1% | EC50 (human α1B‐adrenoceptor [18]): 282 nM | ERK1/2‐phosphorylation % PDBu (human α1B‐adrenoceptor [18]): 65.3 ± 3.0% | Emax at 100 µM ([19]; Cricetulus griseus, CHO, read-out: ERK1/2-phosphorylation % PDBu at 100μM): 12.7 ± 3.1%

COc1ccccc1N1CCN(CCN2C(=O)CC3(CCCC3)CC2=O)CC1 [BMY7378]
Intracellular calcium release % Ionomycin at 100 µM [1, 22]: 4.2 ± 1.0% | ERK1/2‐phosphorylation % PDBu at 100 µM [3, 22]: 3.0 ± 1.5% | cAMP accumulation (in presence of forskolin) Log EC50 ([4]; CHO cells without transfected receptors, in presence of forskolin): No response | Intracellular calcium release % Ionomycin at 100 µM (human α1B‐adrenoceptor [5]; CHO‐α1B cells, response at 100 µM ligand (no EC50 given), % of ionomycin response): 8.0 ± 2.1% | % site 1 (% of the response at the first component), α1D two‐component binding curve [20]: 57.7 ± 2.6% | Intracellular calcium release % ionomycin (human α1A‐adrenoceptor [6]; [23]): 25.0 ± 3.4% | ERK1/2‐phosphorylation % PDBu (human α1A‐adrenoceptor [12]; [24]): 29.0 ± 4.7% | cAMP accumulation % forskolin (human α1A‐adrenoceptor [15]): No response | Emax ([17]; CHO cells without transfected receptors, response at maximum concentration used (c2), as % of ionomycin (10μM) response, mean ± s.e.m.): 7.8 ± 2.2% | ERK1/2‐phosphorylation % PDBu (human α1B‐adrenoceptor [18]; [25]): No response | ERK1/2-phosphorylation % PDBu ([19]; CHO cells without transfected receptors, maximal response as % of PDBu (10μM) response, mean ± s.e.m.): No response

CC(C)(C)NCC(O)COc1cccc2[nH]c(=O)[nH]c12 (stereo not shown) [CGP 12177]
Intracellular calcium release Log EC50 ([1]; CHO‐α1D cells, log values given negative): No response | Intracellular calcium release % ionomycin ([1]; CHO‐α1D cells, maximal response as % of 10 µM ionomycin): No response | Log IC50 α1B, ^3H‐prazosin whole cell binding (human α1B‐adrenoceptor [21]): IC50>−4 | ERK1/2‐phosphorylation % PDBu ([3]; CHO‐α1D cells, maximal response as % of PDBu): 25.8 ± 3.2% | Intracellular calcium release Log EC50 (human α1B‐adrenoceptor [5]; CHO‐α1B cells, given as log EC50 (negative numbers)): No response | Intracellular calcium release % ionomycin (human α1B‐adrenoceptor [5]; CHO‐α1B cells, maximal response as % of 10 µM ionomycin response): No response | Log efficacy ratio KD /EC50 (human α1A‐adrenoceptor [6]): 1.04 | EC50 (human α1A‐adrenoceptor [6]; CHO‐α1A cells, given as log EC50 (negative), read-out: Intracellular calcium release Log EC50 (converted)): 661 nM | Intracellular calcium release % ionomycin (human α1A‐adrenoceptor [6]; [23]): 37.0 ± 2.8% | Affinity selectivity ratio α1B vs α1D [10]: >1.6 fold | ERK1/2‐phosphorylation % PDBu (human α1A‐adrenoceptor [12]; [24]): 86.8 ± 2.6% | Affinity selectivity ratio α1A vs α1B (human α1A‐adrenoceptor [16]): >13.8 fold | ERK1/2‐phosphorylation % PDBu (human α1B‐adrenoceptor [18]; [25]): 38.1 ± 3.8% | Emax ([19]; Cricetulus griseus, CHO cells without transfected receptors, maximal response as % of PDBu (10μM) response, mean ± s.e.m., read-out: ERK1/2-phosphorylation % PDBu): 22.8 ± 4.3% | EC50 ([19]; Cricetulus griseus, CHO cells without transfected receptors, mean ± s.e.m., read-out: ERK1/2-phosphorylation Log EC50 (converted)): 977 nM | ERK1/2‐phosphorylation response in parent CHO cells ([19]; untransfected cells): stimulated ERK1/2‐phosphorylation responses
